Key:
[1] = tested on: MDA-MB-468; assay: SRB-based cytotoxicity assay; type: cell-based, human; conditions: Homo sapiens; MDA-MB-468; SRB; Table 2
Description: (§1) For (anti)proliferation assays, 4,000-5,000 cells/well of the 96-well clustered dish were incubated for 16 hours, as described previously (Hu et al., 2008; Skehan et al., 1990). After 16 hours, culture medium was replaced with fresh medium containing different dilutions of test compounds dissolved in DMSO. Some wells were treated with 100 μl of 10% trichloroacetic acid (TCA) as a negative control and sham (medium with dimethyl sulfoxide; DMSO) treated cells were used as a positive control. After 72 hours post-incubation, medium was removed and cells were fixed with 10% TCA at 4° C. for 1 hour. TCA was removed and cells were washed with cold tap water, and plate was air-dried, followed by addition of 50 μl of 0.4% SRB staining solution to each well. After 30 minutes incubation, SRB staining solution was removed. Cells were washed with 1% acetic acid solution, and then washed with tap water to remove unbound staining solution, followed by air-drying. 200 μl of 10 mM (pH10.5) trizma base buffer was added to each well to solubilise macromolecules. SRB stained macromolecules were determined at a 540 nm wavelength using an automated plate reader (Synergy H4 Hybrid Multi-Mode Microplate Reader, BioTek, Winooski, Vt.). Cell growth (inhibition) was calculated by the following formula:
(§2) % cells proliferation=[(AT−CT)/(ST−CT)]×100
(§3) wherein AT=absorbance of treated cells, CT=absorbance of negative control cells, and ST=absorbance of sham treated cells. IC50 values were calculated from sigmoidal dose-response curves generated by two independent biological replicates, with quadruplicate in each set by using Graph Pad Prism v.5.04 software. […] The combinational index (CI) was calculated as described previously (Chou 2006). If the CI values were less than, equal to or more than 1, it indicates a synergistic, additive or antagonistic effect respectively (Chou 2006). CI values were determined from four independent experiments.

[2] = tested on: MDA-MB-231; assay: SRB-based cytotoxicity assay; type: cell-based, human; conditions: Homo sapiens; MDA-MB-231; SRB; Table 2
Description: as §1, §2, §3

[3] = tested on: MCF-7; assay: SRB-based cytotoxicity assay; type: cell-based, human; conditions: Homo sapiens, MCF7; MCF-7; SRB; Table 2
Description: as §1, §2, §3

[4] = tested on: K562; assay: SRB-based cytotoxicity assay; type: cell-based; conditions: Homo sapiens, Table 2
Description: as §1, §2, §3

[5] = tested on: 184B5; assay: SRB-based cytotoxicity assay; type: cell-based; conditions: Homo sapiens; 184B5 non-cancer; SRB; Table 2
Description: as §1, §2, §3

[6] = tested on: MDA-MB-231 human metastatic breast cancer cells; assay: Anti-tumor activity in xenograft mice; type: in vivo; conditions: Tax 10 mg/kg I.V. once/week, CTR 30 mg/kg I.P. every 3 days, or Tax 5 + CTR 15 mg/kg once/week
Description: Five-week old female CD-1 and ATH490 (strain code 490) athymic nude mice were purchased from Charles River (Quebec, Canada). The MDA-MB-231 human metastatic breast cancer cells were obtained from the American Tissue Culture Collection (ATCC, Manassas, Va., USA). Cells were maintained under humidified conditions at 37° C. and 5% CO2 in DMEM high glucose medium (ATCC) supplemented with 10% fetal bovine serum and antibiotics.
For paclitaxel treatments, 40 mg/ml stock solution of paclitaxel (Sigma, MO) was prepared in DMSO. Just before administration to mice, the paclitaxel stock solution was diluted ten-fold in a buffer containing 10% DMSO, 12.5% Cremophor, 12.5% ethanol, and 65% saline-based diluent (0.9% sodium chloride, 5% polyethylene glycol, and 0.5% tween-80) which is defined as vehicle (Huang et al., 2006). Alanine transaminase (ALT, SUP6001-c)/Aspartate transaminase (AST, SUP6002-c) color endpoint assay kits were purchased from ID Labs Biotechnology (London, Ontario, Canada). Elevation of ALT and AST levels in serum samples was used as an indicator of liver damage/injury.
To determine the anti-tumor activity of CTR compounds in animals, a xenograft model of human breast cancer cells in athymic nude mice was established. Exponentially growing MDA-MB-231 metastatic breast cancer cells were harvested and counted for inoculation into mice. Each mouse was subcutaneously injected at the flank with 10×10^6 cells in 0.2 ml ice cold 1×PBS. When tumor size reached 4-5 mm in diameter (n=4-5 per group), mice were randomly assigned into several groups as described herein.
Animals were monitored for food and water consumption every day, and their body weights and tumor volumes were measured twice per week. Tumor volumes were measured with a digital caliper and were determined by using the following formula: ½ length×width^2. Blood samples were collected via cardiac puncture and processed further for ALT and AST measurements. The animals were then immediately euthanized by carbon dioxide. Tumors and vital organs (spleen, kidney, liver and lung) were collected and fixed in 10% buffered formalin at 4° C. overnight before being processed for paraffin embedding. The paraffin-embedded blocks were then cut into 4-5 μm thick sections. Each section of tumors and organs was stained with hematoxylin and eosin (H&E).

[7] = tested on: KB-C-2; assay: SRB-based cytotoxicity assay, single and combination with paclitaxel; type: cell-based, human; conditions: KB-C-2 versus KB-C-1
Description: (§4) 1845B5 and MCF-10A non-cancer breast cell lines were cultured in DME/F12 medium supplemented with 10% fetal bovine serum, antibiotics and growth factors. […] The human small cell lung carcinoma H69 cell line and its multidrug-resistant MRP1-overexpressing isogenic H69AR cell line were purchased from ATCC. […] H69 cells grow as large multi-cell aggregates, making it difficult to accurately count cell numbers. […] The IL-6 dependent bortezomib-resistant ANBL6-BR cell line was further supplemented with 1 ng/ml of IL-6. The MCF10AT1 and MCF10CA1a cell lines are isogenic to the MCF10A cell line, and obtained from Dr. Valerie Weaver at the Center for Bioengineering and Tissue Regeneration, UCSF, CA, USA. […] The drug-resistant cells were cultured in the absence of drug for at least one passage before carrying out experiments. All cells were maintained in a humidified incubator at 37° C. […] Cell line authentication was performed using short tandem repeat (STR) profiling. […] Some wells were treated with 100 μl of 10% trichloroacetic acid (TCA) as a negative control and sham (medium with dimethyl sulfoxide; DMSO) treated cells were used as a positive control. […] TCA was removed and cells were washed with cold tap water, and plate was air-dried, followed by addition of 50 μl of 0.4% SRB staining solution to each well. After 30 minutes incubation, SRB staining solution was removed. Cells were washed with 1% acetic acid solution, and then washed with tap water to remove unbound staining solution, followed by air-drying. 200 μl of 10 mM (pH10.5) trizma base buffer was added to each well to solubilise macromolecules. […] Cell growth (inhibition) was calculated by the following formula: % cells proliferation=[(AT-CT)/(ST-CT)]×100 wherein AT=absorbance of treated cells, CT=absorbance of negative control cells, and ST=absorbance of sham treated cells. […] CI values were determined from four independent experiments.

[8] = tested on: KB-C-1; assay: SRB-based cytotoxicity assay; type: cell-based; conditions: Homo sapiens, KBC-1; KB-C-1, multidrug naïve
Description: as §4

[9] = tested on: H69AR; assay: SRB-based cytotoxicity assay; type: cell-based, human; conditions: H69AR versus SW-1271
Description: as §4

COc1ccc2cc(/C=C/C(=O)c3ccccc3OC)c(=O)[nH]c2c1 [CTR-19, (E)-7-Methoxy-3-(3-(2-methoxyphenyl)-3-oxoprop-1-enyl) quinolin-2(1H)-one]
IC50 [1]: 1910 nM
IC50 [2]: 5110 nM
IC50 [3]: 1930 nM
IC50 [4]: 950 ± 650 nM
IC50 [5]: 3940 nM
tumor size (volume) ([6]; Day 0): 92.51 mm^3
tumor size (volume) ([6]; Day 6): 84.79 mm^3
tumor size (volume) ([6]; Day 14): 99.68 mm^3
tumor size (volume) ([6]; Day 17): 92.27 mm^3
tumor size (volume) ([6]; Day 20): 115.39 mm^3
tumor size (volume) ([6]; Day 24): 124.76 mm^3
tumor size (volume) ([6]; Day 27): 143.62 mm^3
tumor size (volume) ([6]; Day 30): 200.77 mm^3

COc1ccccc1C(=O)/C=C/c1cc2cc(C)ccc2[nH]c1=O [CTR-18, (E)-3-(3-(2-Methoxyphenyl)-3-oxoprop-1-enyl)-6-methylquinolin-2(1H)-one]
IC50 [1]: 80 nM
IC50 [2]: 930 nM
IC50 [3]: 120 nM
IC50 [4]: 210 ± 20 nM
IC50 [5]: 3890 nM
tumor size (volume) ([6]; Day 0): 92.51 mm^3
tumor size (volume) ([6]; Day 6): 111.09 mm^3
tumor size (volume) ([6]; Day 14): 138.10 mm^3
tumor size (volume) ([6]; Day 17): 145.48 mm^3
tumor size (volume) ([6]; Day 20): 166.84 mm^3
tumor size (volume) ([6]; Day 24): 143.78 mm^3
tumor size (volume) ([6]; Day 27): 141.52 mm^3
tumor size (volume) ([6]; Day 30): 253.37 mm^3

CC[C@]1(O)C[C@@H]2CN(CCc3c([nH]c4ccccc34)[C@@](C(=O)OC)(c3cc4c(cc3OC)N(C)[C@H]3[C@@](O)(C(=O)OC)[C@H](OC(C)=O)[C@]5(CC)C=CCN6CC[C@]43[C@@H]65)C2)C1 [Vinblastine, reference compound]
Resistance (fold) [7]: 15.20 fold
IC50 [8]: 0.61 ± 0.09 nM
Resistance (fold) [9]: 5.82 fold
